Measurements: ChEMBL document CHEMBL5113512, “β-Nitrostyrene derivatives as broad range potential antifungal agents targeting fungal cell wall” (2022)
Values after ≈ are worked out from the molar mass of the structure shown.

Columns and labels:
Format in all cases: functional
Candida albicans [1] = test: Antifungal activity against Candida albicans ATCC 24433 assessed as inhibition of fungal growth by broth microdilution method
Nakaseomyces glabratus = test: Antifungal activity against Candida glabrata ATCC 2001 assessed as inhibition of fungal growth by broth microdilution method
Candida albicans [2] = test: Antifungal activity against Candida albicans ATCC 24433 overexpressing ADCDR1-GFP assessed as inhibition of fungal growth by broth microdilution method
Candida tropicalis = test: Antifungal activity against Candida tropicalis ATCC 750 assessed as inhibition of fungal growth by broth microdilution method
Candida albicans [3] = test: Antifungal activity against Candida albicans ATCC 24433 overexpressing transporter protein F5 assessed as inhibition of fungal growth by broth microdilution method
[Candida] auris [4] = Antifungal activity against Candida auris 105 assessed as inhibition of fungal growth by broth microdilution method; conditions: Candidozyma auris
Candida albicans [5] = test: Antifungal activity against Candida albicans ATCC 24433 overexpressing transporter protein GU4 assessed as inhibition of fungal growth by broth microdilution method
Candida albicans [6] = test: Antifungal activity against Candida albicans ATCC 24433 overexpressing transporter protein GU5 assessed as inhibition of fungal growth by broth microdilution method
[Candida] auris [7] = Antifungal activity against Candida auris 118 assessed as inhibition of fungal growth by broth microdilution method; conditions: Candidozyma auris
Candida albicans [8] = test: Antifungal activity against Candida albicans ATCC 24433 overexpressing ADCaMDR1-GFP assessed as inhibition of fungal growth by broth microdilution method
[Candida] auris [9] = Antifungal activity against wild type Candida auris 102 assessed as inhibition of fungal growth by broth microdilution method; conditions: Candidozyma auris
[Candida] auris [10] = Antifungal activity against Candida auris 102 assessed as inhibition of fungal growth by broth microdilution method; conditions: Candidozyma auris
Candida albicans [11] = test: Antifungal activity against Candida albicans ATCC 24433 overexpressing ADPDR5-GFP assessed as inhibition of fungal growth by broth microdilution method
Candida albicans [12] = test: Antifungal activity against Candida albicans ATCC 24433 overexpressing AD(1-8)u-assessed as inhibition of fungal growth by broth microdilution method
Candida albicans [13] = test: Antifungal activity against Candida albicans ATCC 24433 overexpressing transporter protein F2 assessed as inhibition of fungal growth by broth microdilution method
Candida parapsilosis = test: Antifungal activity against Candida parapsilosis ATCC 90018 assessed as inhibition of fungal growth by broth microdilution method; conditions: Lodderomyces parapsilosis
Candida albicans [14] = test: Synergistic antifungal activity against Candida albicans ATCC 24433 overexpressing ADCaMDR1-GFP assessed as fractional inhibitory concentration index incubated for 48 hrs in presence of caspofungin by checker board assay
Candida albicans [15] = test: Synergistic antifungal activity against Candida albicans ATCC 24433 overexpressing ADCDR1-GFP assessed as fractional inhibitory concentration index incubated for 48 hrs in presence of caspofungin by checker board assay
Candida albicans [16] = test: Synergistic antifungal activity against Candida albicans ATCC 24433 assessed as fractional inhibitory concentration index incubated for 48 hrs in presence of caspofungin by checker board assay
Candida albicans [17] = test: Synergistic antifungal activity against Candida albicans ATCC 24433 overexpressing ADPDR5-G assessed as fractional inhibitory concentration index incubated for 48 hrs in presence of caspofungin by checker board assay
Candida albicans [18] = test: Antifungal activity against Candida albicans SN152 harboring CAS5 mutant assessed as inhibition of fungal growth by broth microdilution method
Candida albicans [19] = test: Antifungal activity against wild type Candida albicans SN152 assessed as inhibition of fungal growth by broth microdilution method

SMILES	MIC80 (Candida albicans [1])	MIC80 (Nakaseomyces glabratus)	MIC80 (Candida albicans [2])	MIC80 (Candida tropicalis)	MIC80 (Candida albicans [3])	MIC80 ([Candida] auris [4])	MIC80 (Candida albicans [5])	MIC80 (Candida albicans [6])	MIC80 ([Candida] auris [7])	MIC80 (Candida albicans [8])	MIC80 ([Candida] auris [9])	MIC80 ([Candida] auris [10])	MIC80 (Candida albicans [11])	MIC80 (Candida albicans [12])	MIC80 (Candida albicans [13])	MIC80 (Candida parapsilosis)	fractional inhibitory concentration index (FICI) (Candida albicans [14])	fractional inhibitory concentration index (FICI) (Candida albicans [15])	MIC80 (Candida albicans [18])	MIC80 (Candida albicans [19])	other results
COc1ccc(/C=C/[N+](=O)[O-])cc1OC	32 µg/mL (≈ 153 µM)	32 µg/mL (≈ 153 µM)	32 µg/mL (≈ 153 µM)	16 µg/mL (≈ 76.5 µM)	16 µg/mL (≈ 76.5 µM)	8 µg/mL (≈ 38.2 µM)	32 µg/mL (≈ 153 µM)	16 µg/mL (≈ 76.5 µM)	4 µg/mL (≈ 19.1 µM)	16 µg/mL (≈ 76.5 µM)	4 µg/mL (≈ 19.1 µM)	8 µg/mL (≈ 38.2 µM)	16 µg/mL (≈ 76.5 µM)	16 µg/mL (≈ 76.5 µM)	16 µg/mL (≈ 76.5 µM)	32 µg/mL (≈ 153 µM)					
COc1ccc(/C=C(\C)[N+](=O)[O-])cc1	8 µg/mL (≈ 41.4 µM)	4 µg/mL (≈ 20.7 µM)	8 µg/mL (≈ 41.4 µM)	4 µg/mL (≈ 20.7 µM)	2 µg/mL (≈ 10.4 µM)	2 µg/mL (≈ 10.4 µM)	4 µg/mL (≈ 20.7 µM)	4 µg/mL (≈ 20.7 µM)	4 µg/mL (≈ 20.7 µM)	4 µg/mL (≈ 20.7 µM)	2 µg/mL (≈ 10.4 µM)	4 µg/mL (≈ 20.7 µM)	4 µg/mL (≈ 20.7 µM)	4 µg/mL (≈ 20.7 µM)	2 µg/mL (≈ 10.4 µM)	16 µg/mL (≈ 82.8 µM)	<0.5	<0.5			fractional inhibitory concentration index (FICI) (Candida albicans [16]): <1.5; fractional inhibitory concentration index (FICI) (Candida albicans [17]): <0.5
CC/C(=C\c1ccc(OC)c(OC)c1)[N+](=O)[O-]	16 µg/mL (≈ 67.4 µM)	32 µg/mL (≈ 135 µM)	32 µg/mL (≈ 135 µM)	16 µg/mL (≈ 67.4 µM)	8 µg/mL (≈ 33.7 µM)	8 µg/mL (≈ 33.7 µM)	16 µg/mL (≈ 67.4 µM)	8 µg/mL (≈ 33.7 µM)	8 µg/mL (≈ 33.7 µM)	8 µg/mL (≈ 33.7 µM)	8 µg/mL (≈ 33.7 µM)	8 µg/mL (≈ 33.7 µM)	8 µg/mL (≈ 33.7 µM)	16 µg/mL (≈ 67.4 µM)	8 µg/mL (≈ 33.7 µM)	32 µg/mL (≈ 135 µM)	<0.5	<0.5			fractional inhibitory concentration index (FICI) (Candida albicans [17]): <0.5
C/C(=C\c1ccc(N(C)C)cc1)[N+](=O)[O-]	16 µg/mL (≈ 77.6 µM)	32 µg/mL (≈ 155 µM)	32 µg/mL (≈ 155 µM)	16 µg/mL (≈ 77.6 µM)	16 µg/mL (≈ 77.6 µM)	8 µg/mL (≈ 38.8 µM)	16 µg/mL (≈ 77.6 µM)	16 µg/mL (≈ 77.6 µM)	8 µg/mL (≈ 38.8 µM)	8 µg/mL (≈ 38.8 µM)	8 µg/mL (≈ 38.8 µM)	8 µg/mL (≈ 38.8 µM)	16 µg/mL (≈ 77.6 µM)	16 µg/mL (≈ 77.6 µM)	16 µg/mL (≈ 77.6 µM)	32 µg/mL (≈ 155 µM)					
CC/C(=C\c1cccc([N+](=O)[O-])c1)[N+](=O)[O-]	32 µg/mL (≈ 144 µM)	16 µg/mL (≈ 72 µM)	16 µg/mL (≈ 72 µM)	16 µg/mL (≈ 72 µM)	4 µg/mL (≈ 18 µM)	8 µg/mL (≈ 36 µM)	8 µg/mL (≈ 36 µM)	16 µg/mL (≈ 72 µM)	8 µg/mL (≈ 36 µM)	8 µg/mL (≈ 36 µM)	8 µg/mL (≈ 36 µM)	8 µg/mL (≈ 36 µM)	16 µg/mL (≈ 72 µM)	16 µg/mL (≈ 72 µM)	4 µg/mL (≈ 18 µM)	32 µg/mL (≈ 144 µM)	<0.5	<0.5	8 µg/mL (≈ 36 µM)	16 µg/mL (≈ 72 µM)	fractional inhibitory concentration index (FICI) (Candida albicans [16]): <0.5; fractional inhibitory concentration index (FICI) (Candida albicans [17]): <0.5
C[C@@H]1[C@H](O)[C@@H](C)/C=C/C=C/C=C/C=C/C=C/C=C/C=C/[C@H](O[C@@H]2O[C@H](C)[C@@H](O)[C@H](N)[C@@H]2O)C[C@@H]2O[C@](O)(C[C@@H](O)C[C@@H](O)[C@H](O)CC[C@@H](O)C[C@@H](O)CC(=O)O[C@H]1C)C[C@H](O)[C@H]2C(=O)O [AMPHOTERICIN B]																			0.5 µg/mL (≈ 0.541 µM)	0.5 µg/mL (≈ 0.541 µM)	
OC(Cn1cncn1)(Cn1cncn1)c1ccc(F)cc1F [FLUCONAZOLE]																			1 µg/mL (≈ 3.27 µM)	1 µg/mL (≈ 3.27 µM)	
O=[N+]([O-])/C=C/c1cccc(O)c1	16 µg/mL (≈ 96.9 µM)	16 µg/mL (≈ 96.9 µM)	16 µg/mL (≈ 96.9 µM)	> 32 µg/mL	8 µg/mL (≈ 48.4 µM)	8 µg/mL (≈ 48.4 µM)	32 µg/mL (≈ 194 µM)	16 µg/mL (≈ 96.9 µM)	8 µg/mL (≈ 48.4 µM)	4 µg/mL (≈ 24.2 µM)	8 µg/mL (≈ 48.4 µM)	8 µg/mL (≈ 48.4 µM)	4 µg/mL (≈ 24.2 µM)	16 µg/mL (≈ 96.9 µM)	16 µg/mL (≈ 96.9 µM)	16 µg/mL (≈ 96.9 µM)	<0.5	<0.5	8 µg/mL (≈ 48.4 µM)	16 µg/mL (≈ 96.9 µM)	fractional inhibitory concentration index (FICI) (Candida albicans [17]): <0.5
Nc1c(/N=N/c2ccc(-c3ccc(/N=N/c4cc(S(=O)(=O)[O-])c5ccccc5c4N)cc3)cc2)cc(S(=O)(=O)[O-])c2ccccc12.[Na+].[Na+] [CONGO RED]																			0.781 µg/mL	100 µg/mL	
